The test system of data set [1] is HIF-1α. Description: HIF-1α Western blot in human tumor cells under hypoxia. In kind it is cell-based.
Protocol: For HIF1-alpha Western blots, Hep3B cells were seeded in growth medium at a density of 7×10^6 cells per 100 mm dish. […] Samples were fractionated on 3-8% Tris-Acetate gel (Invitrogen NUPAGE system) by sodium dodecyl sulfate (SDS)-polyacrylamide gel electropherosis and transferred onto nitrocellulose membrane. […] Anti-Beta-actin monoclonal antibody (Abcam, ab6276-100) was used at a 1:5000 dilution with a 30-minute incubation at room temperature.
The cells were placed in hypoxic conditions for 4 hours for HIF1-alpha accumulation.
The cells were lysed and proteins were resolved by SDS-PAGE and transferred to a nylon membrane. The membrane was immunoblotted with anti-HIF-1α and anti-HIF1β MAb, and anti-beta-actin antibodies.
HIF-1α and β-actin protein level was determined by western blotting.
In data set [2] the test system is Na/K-ATPase. The note with it: cited from earlier work.
Data set [3] relates to VEGF. In words: VEGF secretion in tumor cells. In kind it is cell-based. As to conditions: FIG. 8.
The subject of data set [4] is several different cancer cell lines. In words: Proliferation of several different cancer cell lines. The data set is classed as cell-based.
Data set [5] has as its system A549 Sentinel Line. In words: Sentinel Line beta-galactosidase reporter assay (FACS, FDG loading). The data set is classed as cell-based, human. As to conditions: 40 hrs; mitoxantrone 8 nM, paclitaxel 1.5 nM, carboplatin 15 μM, Iressa 4 μM. The procedure: The expression level of beta-galactosidase gene in sentinel lines was determined by using a fluorescent substrate fluorescein di-β-D-Galactopyranside (FDG, Marker Gene Tech, #M0250) introduced into cells by hypotonic shock. Cleavage by beta-galactosidase results in the production of free fluorescein, which is unable to cross the plasma membrane and is trapped inside the beta-gal positive cells. Briefly, the cells to be analyzed are trypsinized, and resuspended in PBS containing 2 mM FDG (diluted from a 10 mM stock prepared in 8:1:1 mixture of water:ethanol:DMSO). The cells were then shocked for 4 minutes at 37° C. and transferred to FACS tubes containing cold 1×PBS on ice. Samples were kept on ice for 30 minutes and analyzed by FACS in FL1 channel.
Sentinel Line cells with beta-galactosidase reporter gene were plated at 1×10^5 cells/10 cm dish. […] After 40 hrs, the cells were trypsinized and the expression level of reporter gene was determined by FDG loading.
The reporter activity was measured by FACS analysis.

For data set [6], the system named is Caki-1 human renal cancer xenograft. The data set is classed as in vivo. The note with it: xenografted Caki-1 human renal tumors in nude mice; FIG. 23. From the text:
Female nude mice (nu/nu) between 5 and 6 weeks of age weighing approximately 20 g were implanted subcutaneously (s.c.) by trocar with fragments of human tumors harvested from s.c. grown tumors in nude mice hosts. […] Each group contains 8-10 mice, each of which was ear tagged and followed throughout the experiment.
The administration of drugs or controls began the day the animals were pair-matched (Day 1). […] Mice were weighed and tumor measurements were obtained using calipers twice weekly, starting Day 1. These tumor measurements were converted to mg tumor weight by standard formula, (W^2×L)/2. The experiment is terminated when the control group tumor size reached an average of about 1 gram. Upon termination, the mice were weighed, sacrificed and their tumors excised. The tumors were weighed and the mean tumor weight per group was calculated.

Data set [7] relates to HIF-1α. In words: HIF-1α induced under normoxia by PHD inhibitor L-mimosone in Hep3B cells, Western blot. In kind it is cell-based, human. The procedure: Abundance of HIF-1α and β-actin was determined by western blotting.
For data set [8], the system named is Panc-1 human pancreatic xenograft. Description: Panc-1 human pancreatic tumor xenograft in nude mice. In kind it is in vivo. As to conditions: Panc-1 xenografts in nude mice; FIGS. 16, 17, 22. The procedure: The control animals received pumps containing vehicle (50% DMSO in DMEM). The mice treated with standard chemotherapy agent received intra-peritoneal injections of Gemcitabine at 40 mg/kg every 3 days for 4 treatments (q3d×4). Each data point represent average tumor weight (n=8) and error bars indicate SEM.

The conditions of data set [9]: cited from earlier work.
The conditions of data set [10]: mice.
For data set [11] the following is noted: cited from earlier work. The source holds these as a separate data set.

“Also recorded” adds a separate entry of the source.

Turning to `C[C@@H]1OC(OC2C=C3CCC4C5=CC[C@H](c6ccc(=O)oc6)[C@@]5(C)CCC4[C@@]3(C)CC2)[C@H](O)[C@H](O)[C@H]1O` (stereo partly drawn) [BNC-151], the HIF-1α expression entry in data set [1] (1 μM) is “Significant inhibition of HIF-1α expression”.

On to `C[C@@H]1O[C@@H](O[C@H]2C[C@@H](O)[C@]3(CO)[C@H]4[C@H](O)C[C@]5(C)[C@@H](C6=CC(=O)OC6)CC[C@]5(O)[C@@H]4CC[C@]3(O)C2)[C@H](O)[C@H](O)[C@H]1O` [BNC-1, ouabain], for which the “order of Na/K-ATPase-inhibition” value in data set [2] is on record as “Ouabain<Digoxin<Proscillaridin”. In addition, the “secretion of the angiogenesis factor VEGF” value in data set [3] is given as “directly or indirectly inhibits”. Besides, the “decrease of concentration effective for inhibiting proliferation of cancer cells” value in data set [4] (combination with steroid signal modulator (Casodex)) was found to be 5 fold. Moreover, in data set [4] (proliferation of cancer cell lines, read-out: IC50 across several different cancer cell lines), the IC50 lay within 80 to 300 nM.

As to `O=C1c2c(O)ccc(O)c2C(=O)c2c(NCCNCCO)ccc(NCCNCCO)c21` [mitoxanthrone, mitoxantrone], the “cell death and reporter activity in Sentinel Lines” value (shortened to “cell death and reporter activity”) in data set [5] is “increases in cell death and reporter activity”.

As for `CC(=O)O[C@H]1C(=O)[C@@]2(C)[C@H]([C@H](OC(=O)c3ccccc3)[C@]3(O)C[C@H](OC(=O)[C@H](O)[C@@H](NC(=O)c4ccccc4)c4ccccc4)C(C)=C1C3(C)C)[C@]1(OC(C)=O)CO[C@@H]1C[C@@H]2O` [paclitaxel], the “cell death and reporter activity” value in [5] is “increases in cell death and reporter activity”.

Consider `N.N.O=C([O-])C1(C(=O)[O-])CCC1.[Pt+2]` [Carboplatin], for which, in data set [5], the “cell death and reporter activity” value was “increases in cell death and reporter activity”.

Regarding `C[C@@H]1OC(OC2C=C3CCC4C(CC[C@]5(C)[C@@H](c6ccc(=O)oc6)CC[C@]45O)[C@@]3(C)CC2)[C@H](O)[C@H](O)[C@H]1O` (stereo partly drawn) [BNC-4, proscillaridin], the “order of Na/K-ATPase-inhibition” value in data set [2] was “Ouabain<Digoxin<Proscillaridin”. Moreover, the “secretion of the angiogenesis factor VEGF” value in data set [3] is recorded as “directly or indirectly inhibits”. Also, the tumor growth entry in data set [6] and in [8] was “significantly reduce tumor growth” each time. The HIF-1α accumulation entry in data set [7] (200 μM L-mimosone for 18 h) is “blocks HIF-1α induction; also recorded: eliminated HIF-1α accumulation”; in [7] (L-mimosone, low concentration tested), “did not appear to have an effect”. In addition, the “patients taken off treatment because of negative side effects” value in data set [9] (1067 patients observed for up to 3 years) is given as 0.7%. Further, the “doses producing typical cardiac glycoside intoxication symptoms” value in data set [9] (healthy individuals) was “above 4 mg p.o./d”. In addition, the “average level of side effects (nausea, seasickness, headache, vomiting, stomach cramps, diarrhea) in clinical reports” value in [9] (human, in vivo) is given as 5%. Further, the “dose taken without any negative side effects” value in data set [9] (long-term medication of cardiac illnesses) is “up to 1.5 mg per day”. In addition, in [9] (review of 47 clinical studies), the “reported cases in which therapy could be resumed after a brief hiatus” value is recorded as above 95%. The HIF-1α expression result in data set [1] (0.1 μM) and in data set [1] (1 μM) was “completely inhibits HIF-1α expression” throughout. The “serum level corresponding to maximum toxic dose (MTD)” value in data set [10] is given as “about 518 (±121) ng/ml”. In data set [10] (steady state delivery), the “toxic serum concentration at day 1” value is reported as “about 518±121 ng/ml”. Moreover, the “time of third plasma concentration peak” value in data set [11] (after dosing) is given as “about 10 hours”. Also, the “influence of impaired kidney function on clearance” value in [11] (in vivo) is listed as “no influence on clearance”.

Regarding `C[C@H]1O[C@@H](O[C@H]2[C@@H](O)C[C@H](O[C@H]3[C@@H](O)C[C@H](O[C@H]4CC[C@@]5(C)[C@H](CC[C@@H]6[C@@H]5C[C@@H](O)[C@]5(C)[C@@H](C7=CC(=O)OC7)CC[C@]65O)C4)O[C@@H]3C)O[C@@H]2C)C[C@H](O)[C@@H]1O` [Digoxin], the “order of Na/K-ATPase-inhibition” value in data set [2] is “Ouabain<Digoxin<Proscillaridin”.

As for `COc1cc2ncnc(Nc3ccc(F)c(Cl)c3)c2cc1OCCCN1CCOCC1` [Iressa], the “cell death and reporter activity” value in data set [5] is on record as “reduction in reporter activity”.

These data come from patent US20080027010A1, “Treatment of refractory cancers using Na+/K+-ATPase inhibitors” (Bionaut Pharmaceuticals, Inc., priority 2004, published 2008).
